Source: patent US20100255117A1, “METHODS AND COMPOSITIONS FOR THE TREATMENT OF CANCER” (The Johns Hopkins University, priority 2007, published 2010)

Columns and labels:
A549 cells [1] = experiment: A549 subcutaneous tumor xenograft, intratumoral siRNA with or without carboplatin/radiation; assay type: in vivo, athymic nude mice
Description: Tumor Xenografts and siRNA Treatment: We injected A549 cells (5×10^6) and H460 cells (2×10^6) subcutaneously into the hind leg of male athymic nude mice and measured the tumor dimensions by caliper once per week. The tumor volumes were calculated using the following formula: [length (mm)×width (mm)×width (mm)×0.52]. For in vivo delivery of siRNA into tumors, siRNA duplexes diluted in PBS were injected into the tumors using insulin syringes at a concentration of 10 μg of siRNA/50 mm^3 of tumor volume. Intraperitoneal injections of carboplatin were given at a dose of 40 mg/kg body weight. Both siRNA and carboplatin were administered twice weekly for 4 weeks. Upon termination, tumors were harvested and weighted. For radiation exposure, mice with subcutaneous tumors were exposed to high dose rate radiation (2 dose of 3Gy each) using a Gamma cell 40 ^137Cs irradiator (Atomic Energy of Canada, Ltd).
Statistical Analysis—Statistical comparisons were performed by Student's t-tests or Wilcoxon rank-sum test. A value of p<0.05 was considered statistically significant. Tumor weights and changes in tumor volume were summarized using descriptive statistics. Differences in tumor measures between treatment groups were examined using linear regression models with generalized estimating equations (GEE). The distributions of both tumor measurements were skewed, so log transformations were used.

A549-C8-luc cells = experiment: Orthotopic A549-C8-luc lung tumor model, inhaled siRNA with or without carboplatin; assay type: in vivo, SCID-Beige mice; conditions: carboplatin 30 mg/kg i.p. twice/week, 4 weeks
Description: Experimental Lung Metastasis: In experimental metastasis experiments, 2×10^6 A549-C8-luc cells were injected into SCID-Beige mice (Charles River, Mass.) intravenously. For delivery of siRNA into lung tumors, 100 μg of siRNA duplex diluted in PBS was aerosolized using a nebulizer. Mice were given three doses of siRNA (100 μg/dose) every week, for 4 weeks, using a nebulizer. Intraperitoneal injections of carboplatin were given at a dose of 30 mg/kg body weight twice/week. All experimental animal protocols were performed in accordance with guidelines approved by the animal care committee at the Johns Hopkins University Bloomberg School of Public Health.
In Vivo Imaging: For luminescent imaging, animals inoculated with A549-C8-luc cells, which express a luciferase reporter gene, were anesthetized and injected intraperitoneally with 250 ul of luminescent substrate (15 mg/ml stock) D-Luciferin Firefly (Xenogen Cat# XR-1001). The animals were then imaged and analyzed by using the Xenogen IVIS Optical Imaging Device in the Johns Hopkins Oncology Center.

ROS = experiment: Measurement of ROS levels (c-H2DCFDA, flow cytometry); assay type: cell-based, human; conditions: NAC for 30 mins
Description: Measurement of ROS levels: Cells were incubated with 10 μM c-H2DCFDA (molecular probes, Invitrogen, CA) for 30 mins at 37° C. to assess the ROS mediated oxidation to the fluorescent compound c-H2DCF. Fluorescence of oxidized c-H2DCF was measured at an excitation wavelength of 480 nm and an emission wavelength of 525 nm using a FAC Scan flow cytometer (Becton Dickinson).

A549 cells [2] = experiment: Clonogenic survival after ionizing radiation, A549; assay type: cell-based, human; conditions: A549-NRF2 shRNA cells
Description: (§1) Clonogenic assays: Exponentially growing cells were counted, diluted and seeded in triplicate at 1000 cells per culture dish (100 mm). Cells were incubated for 24 h in a humidified CO2 incubator at 37° C., exposed to high dose rate (0.68Gy/min) radiation using a Gamma cell 40 ^137Cs irradiator (Atomic Energy of Canada, Ltd). To assess clonogenic survival following radiation exposure, cell cultures were incubated in complete growth medium at 37° C. for 14 days and then stained with 50% methanol-crystal violet solution. Only colonies with more than 50 cells were counted, and the surviving fraction was calculated and compared to the control.

H460 cells = experiment: Clonogenic survival after ionizing radiation, H460; assay type: cell-based, human; conditions: H460-NRF2 shRNA cells
Description: as §1

SMILES	ratio of differences in change in tumor volume, siRNA+carboplatin vs siRNA (A549 cells [1]; experiment 1)	ratio of tumor weights, siRNA vs siRNA+carboplatin treated tumors (A549 cells [1]; experiment 1, carboplatin 40 mg/kg i.p. twice weekly)	ratio of differences in change in tumor volume, siRNA+carboplatin vs siRNA+radiation (A549 cells [1]; experiment 1, not significant)	ratio of tumor weights, siRNA+carboplatin vs siRNA treated tumors (A549 cells [1]; second experiment)	ratio of lung weights, siRNA vs siRNA+carboplatin treated tumors (A549-C8-luc cells)	reduction of ROS production / mean fluorescent intensity (ROS; A549-NRF2shRNA cells)	reduction of ROS production / mean fluorescent intensity (ROS; H460-NRF2shRNA cells)	cell survival after radiation with NAC pretreatment (A549 cells [2])	cell survival after radiation with NAC pretreatment (H460 cells)
N.N.O=C([O-])C1(C(=O)[O-])CCC1.[Pt+2] [carboplatin]	0.45	2.13	0.77	0.55	1.73				
CC(=O)N[C@@H](CS)C(=O)O [NAC, N-acetyl cysteine]						85%	75%	significantly increased cell survival	significantly increased cell survival
